{"source": "patent EP0169785A1", "about": "“Use of 1,8,9-triacetoxy-anthracene as the active ingredient in the preparation of an antitumoral pharmaceutical compound” (CENTRE INTERNATIONAL DE RECHERCHES DERMATOLOGIQUES C.I.R.D. …, priority 1984, dated 1986)", "key": {"[1]": {"test_system": "cellules leucémiques lymphocytiques P 388", "test": "Anti-tumour activity against intraperitoneally implanted P 388 lymphocytic leukaemia in mice (median survival time)", "format": "in vivo, souris", "conditions": "for Temps médian de survie (en jours) Animaux testés T / T/C x 100: intraperitoneal; for Temps médian de survie (en jours) Animaux testés T: daily for 5 days after tumour implantation, controls C 9,9 days; for T/C x 100: active when ratio above 120", "experimental": "EXEMPLE 4 - Etude de l'activité anti-tumorale vis-à-vis des cellules leucémiques lymphocytiques P 388.\nLe principe du test est le suivant : On implante chez la souris, au jour zéro, une tumeur, par injection intrapéritonéale de 10^6 cellules tumorales dans 0,1 ml de fluide ascitique dilué. Le traitement consiste à administrer quotidiennement le produit étudié, par voie intrapéritonéale pendant les 5 jours suivant l'implantation de la tumeur.\nOn considère que le produit est actif selon ce test, lorsque le rapport [formula] est supérieur à 120."}, "[2]": {"test_system": "cellules de mélanocarcinome B 16", "test": "Anti-tumour activity against intraperitoneally implanted B 16 melanocarcinoma in mice (median survival time)", "format": "in vivo, souris", "conditions": "for Temps médian de survie (en jours) Animaux testés T / T/C X 100: intraperitoneal; for Temps médian de survie (en jours) Animaux testés T: daily for 9 days after tumour implantation, controls C 15,4 days; for T/C X 100: active when ratio above 125", "experimental": "EXEMPLE 5 - Etude de l'activité anti-tumorale vis-à-vis des cellules de mélanocarcinome B 16.\nLe principe du test est le suivant : On a implanté, chez la souris, par injection intrapériotonéale au jour 0, 0,5 ml d'un homogénéisat dilué (1/10) des cellules tumorales.\nLe traitement consiste à administrer le produit étudié, quotidiennement, par voie intrapéritonéale, pendant les 9 jours suivant l'implantation de la tumeur.\nOu considère qu'un produit est actif, selon ce test, lorsque le rapport [formula] est supérieur à 125."}, "[3]": {"test": "Solubility (qualitative description)", "format": "physicochemical", "conditions": "solvents named"}}, "data": [{"smiles": "CC(=O)Oc1cccc2cc3cccc(OC(C)=O)c3c(OC(C)=O)c12", "note": "[composé de formule I, triacétoxy-1,8,9 anthracène]", "values": [{"measurement": "Temps médian de survie (en jours) Animaux testés T", "setting": "[1]; 0,79 mg/kg", "value": "12,3 jours"}, {"measurement": "T/C x 100", "setting": "[1]; 0,79 mg/kg, daily for 5 days", "value": 124}, {"measurement": "Temps médian de survie (en jours) Animaux testés T", "setting": "[1]; 1,56 mg/kg", "value": "13,3 jours"}, {"measurement": "T/C x 100", "setting": "[1]; 1,56 mg/kg, daily for 5 days", "value": 134}, {"measurement": "Temps médian de survie (en jours) Animaux testés T", "setting": "[1]; 3,12 mg/kg", "value": 13, "unit": "jours"}, {"measurement": "T/C x 100", "setting": "[1]; 3,12 mg/kg, daily for 5 days", "value": 131}, {"measurement": "minimal effective dose", "setting": "[1]; Mus musculus, P388, ip, 120 h, P 388, intraperitoneal, daily for 5 days, dose at which the compound is active (T/C x 100 above 120), read-out: actif à la dose de", "value": "~0.8", "unit": "mg/kg"}, {"measurement": "dose optimale", "setting": "[1]; P 388, intraperitoneal, daily for 5 days", "value": "~1,56 mg/kg"}, {"measurement": "Temps médian de survie (en jours) Animaux testés T", "setting": "[2]; 0,75 mg/kg", "value": "19,7 jours"}, {"measurement": "T/C X 100", "setting": "[2]; 0,75 mg/kg, daily for 9 days", "value": 127}, {"measurement": "Temps médian de survie (en jours) Animaux testés T", "setting": "[2]; 3 mg/kg", "value": 20, "unit": "jours"}, {"measurement": "T/C X 100", "setting": "[2]; 3 mg/kg, daily for 9 days", "value": 129}, {"measurement": "Temps médian de survie (en jours) Animaux testés T", "setting": "[2]; 1,5 mg/kg", "value": 23, "unit": "jours"}, {"measurement": "T/C X 100", "setting": "[2]; 1,5 mg/kg, daily for 9 days", "value": 149}, {"measurement": "dose optimale", "setting": "[2]; B 16, intraperitoneal, daily for 9 days", "value": "~1,50 mg/kg"}, {"measurement": "solubilité", "setting": "[3]", "value": "soluble notamment dans les alcools et l'acétone"}]}]}
